Measurements reported in patent EP2970215B1, “PYRROLIDINE DERIVATIVES, PHARMACEUTICAL COMPOSITIONS CONTAINING THEM, AND THEIR USE IN THERAPY” (AbbVie Deutschland GmbH & Co. KG, priority 2013, dated 2014).

Molecular target: T1, human GlyT1c transporter (Homo sapiens, UniProt P48067)
T1 construct: expressed in transfected cells; host or cells: CHO cells (recombinant; line hGlyT1c_5_CHO is named for the uptake assay)
T1 sequence (P48067 1-706): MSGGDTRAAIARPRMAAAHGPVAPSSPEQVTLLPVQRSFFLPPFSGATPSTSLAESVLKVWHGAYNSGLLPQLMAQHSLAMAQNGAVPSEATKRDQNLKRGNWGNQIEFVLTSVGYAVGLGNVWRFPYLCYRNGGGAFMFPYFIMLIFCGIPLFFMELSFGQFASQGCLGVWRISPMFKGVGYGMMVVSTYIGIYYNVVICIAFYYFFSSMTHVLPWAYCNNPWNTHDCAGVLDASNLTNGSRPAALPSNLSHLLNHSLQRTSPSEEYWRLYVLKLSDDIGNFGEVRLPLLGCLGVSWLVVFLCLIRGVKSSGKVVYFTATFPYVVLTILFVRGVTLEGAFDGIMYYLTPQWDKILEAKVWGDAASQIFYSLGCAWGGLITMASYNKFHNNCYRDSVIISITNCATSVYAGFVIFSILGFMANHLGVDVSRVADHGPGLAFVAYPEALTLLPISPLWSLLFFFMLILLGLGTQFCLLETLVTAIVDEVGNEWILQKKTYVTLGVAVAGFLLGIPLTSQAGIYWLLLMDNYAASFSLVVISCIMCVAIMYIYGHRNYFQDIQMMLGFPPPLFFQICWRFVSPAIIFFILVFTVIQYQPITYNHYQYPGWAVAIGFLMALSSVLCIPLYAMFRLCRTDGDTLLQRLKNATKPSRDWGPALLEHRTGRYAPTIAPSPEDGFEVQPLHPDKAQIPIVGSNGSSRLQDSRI
Experiment: Radioligand binding assay using recombinant CHO cell membranes expressing human GlyT1
Settings: radioligand binding to human GlyT1c transporter-expressing membranes
From the text: 2. Radioligand binding assays using recombinant CHO cell membranes expressing human GlyT1: […]

Compound	Ki [nM]
Cn1cnc(S(=O)(=O)N2C[C@@H]([C@@H]3CCCOC3)[C@H](Nc3cccc(OC(F)(F)F)c3)C2)c1 (mixture of isomers) [Example 784, trans-1-[(1-methyl-1H-imidazol-4-yl)sulfonyl]-4-[(3S)-tetrahydro-2H-pyran-3-yl]-N-[3-(trifluoromethoxy)phenyl]pyrrolidin-3-amine]	≤ 100
COc1ccccc1C(=O)N[C@@H]1CN(S(=O)(=O)c2cn(C)cn2)C[C@H]1c1ccccc1 (relative stereo) [Example 20, 2-methoxy-N-{trans-1-[(1-methyl-1H-imidazol-4-yl)sulfonyl]-4-phenylpyrrolidin-3-yl}benzamide]	≤ 10000
Cn1cnc(S(=O)(=O)N2C[C@@H](Nc3cc(F)cc(C#N)c3)[C@H](c3ccccc3)C2)c1 (relative stereo) [Example 78, 3-fluoro-5-({trans-1-[(1-methyl-1H-imidazol-4-yl)sulfonyl]-4-phenylpyrrolidin-3-yl}amino)benzonitrile]	≤ 1000
Cn1cnc(S(=O)(=O)N2C[C@H](NCC3CCC(C(F)(F)F)CC3)[C@@H](c3ccc(F)cc3)C2)c1 (stereo partly drawn) [Example 707, (3R,4S)-4-(4-fluorophenyl)-1-[(1-methyl-1H-imidazol-4-yl)sulfonyl]-N-{[4-(trifluoromethyl)cyclohexyl]methyl}pyrrolidin-3-amine]	≤ 1000
CC(C)(C)OC(=O)N[C@@H]1CN(S(=O)(=O)c2ccccc2C#N)C[C@H]1c1ccc(F)cc1 (relative stereo) [Example 524, tert-butyl [trans-1-[(2-cyanophenyl)sulfonyl]-4-(4-fluorophenyl)pyrrolidin-3-yl]carbamate]	≤ 10000
CCC(CCCN[C@H]1CN(S(=O)(=O)c2cn(C)cn2)C[C@@H]1c1ccccc1)OC (stereo partly drawn) [Example 648, (3R,4S)-N-(4-methoxyhexyl)-1-[(1-methyl-1H-imidazol-4-yl)sulfonyl]-4-phenylpyrrolidin-3-amine]	≤ 10000
Cn1cnc(S(=O)(=O)N2C[C@@H](Nc3cc(F)cc(Cl)c3)[C@H](c3ccc(F)cc3)C2)c1 (relative stereo) [Example 174, trans-N-(3-chloro-5-fluorophenyl)-4-(4-fluorophenyl)-1-[(1-methyl-1H-imidazol-4-yl)sulfonyl]pyrrolidin-3-amine]	≤ 1000
CCCCCCNC(=O)[C@@H]1CN(S(=O)(=O)c2cn(C)cn2)C[C@H]1c1ccc(F)cc1 (relative stereo) [Example 627, Trans-4-(4-fluorophenyl)-N-hexyl-1-[(1-methyl-1H-imidazol-4-yl)sulfonyl]pyrrolidine-3-carboxamide]	≤ 1000
Cc1ccccc1-c1cc(N[C@H]2CN(S(=O)(=O)c3cn(C)cn3)C[C@@H]2c2ccc(F)cc2)ncn1 [Example 723, N-{(3R,4S)-4-(4-fluorophenyl)-1-[(1-methyl-1H-imidazol-4-yl)sulfonyl]pyrrolidin-3-yl}-6-(2-methylphenyl)pyrimidin-4-amine]	≤ 100
Cn1cnc(S(=O)(=O)N2C[C@@H](CNc3cccc(C(F)(F)F)c3)[C@H](c3ccc(F)cc3)C2)c1 (relative stereo) [Example 335, N-({Trans-4-(4-fluorophenyl)-1-[(1-methyl-1H-imidazol-4-yl)sulfonyl]pyrrolidin-3-yl}methyl)-3-(trifluoromethyl)aniline]	≤ 1000
Cn1cnc(S(=O)(=O)N2C[C@@H](Nc3ccc(Cl)c(F)c3)[C@H](c3cccc(F)c3)C2)c1 (relative stereo) [Example 193, trans-N-(4-chloro-3-fluorophenyl)-4-(3-fluorophenyl)-1-[(1-methyl-1H-imidazol-4-yl)sulfonyl]pyrrolidin-3-amine]	≤ 10000
Cn1cnc(S(=O)(=O)N2C[C@H](NCc3scnc3Cl)[C@@H](c3ccccc3)C2)c1 [Example 565, (3R,4S)-N-[(4-chloro-1,3-thiazol-5-yl)methyl]-1-[(1-methyl-1H-imidazol-4-yl)sulfonyl]-4-phenylpyrrolidin-3-amine]	≤ 10000
CCCn1cc([C@H]2CN(S(=O)(=O)c3cn(C)cn3)C[C@@H]2c2ccc(F)cc2)nn1 [Example 640, 4-{(3R,4S)-4-(4-fluorophenyl)-1-[(1-methyl-1H-imidazol-4-yl)sulfonyl]pyrrolidin-3-yl}-1-propyl-1H-1,2,3-triazole]	≤ 1000
N#Cc1ccccc1S(=O)(=O)N1C[C@@H](Nc2cccc(Cl)c2)[C@H](c2ccccc2)C1 (relative stereo) [Example 528, 2-({Trans-3-[(3-chlorophenyl)amino]-4-phenylpyrrolidin-1-yl}sulfonyl)benzonitrile]	> 10000
COCC1(CN[C@H]2CN(S(=O)(=O)c3cn(C)cn3)C[C@@H]2c2ccccc2)CC1 [Example 590, (3R,4S)-N-{[1-(methoxymethyl)cyclopropyl]methyl}-1-[(1-methyl-1H-imidazol-4-yl)sulfonyl]-4-phenylpyrrolidin-3-amine]	≤ 10000
Cn1cnc(S(=O)(=O)N2C[C@@H]([C@@H]3CCCOC3)[C@H](Nc3ccc(F)c(C(F)(F)F)c3)C2)c1 (mixture of isomers) [Example 791, Trans-N-[4-fluoro-3-(trifluoromethyl)phenyl]-1-[(1-methyl-1H-imidazol-4-yl)sulfonyl]-4-[(3S)-tetrahydro-2H-pyran-3-yl]pyrrolidin-3-amine]	≤ 1000
Cn1cnc(S(=O)(=O)N2C[C@H](Nc3cc(OCC(F)(F)F)c(F)cn3)[C@@H](c3ccc(F)cc3)C2)c1 [Example 810, 5-fluoro-N-{(3R,4S)-4-(4-fluorophenyl)-1-[(1-methyl-1H-imidazol-4-yl)sulfonyl]pyrrolidin-3-yl}-4-(2,2,2-trifluoroethoxy)pyridin-2-amine]	≤ 10
Cn1cnc(S(=O)(=O)N2C[C@@H](C(=O)NCc3cccc(OC(F)(F)F)c3)[C@H](c3ccc(F)cc3)C2)c1 (relative stereo) [Example 661, Trans-4-(4-fluorophenyl)-1-[(1-methyl-1H-imidazol-4-yl)sulfonyl]-N-[3-(trifluoromethoxy)benzyl]pyrrolidine-3-carboxamide]	≤ 1000
Cn1cnc(S(=O)(=O)N2C[C@H](NCc3sc4ccccc4c3Cl)[C@@H](c3ccccc3)C2)c1 [Example 440, (3R,4S)-N-[(3-chloro-1-benzothiophen-2-yl)methyl]-1-[(1-methyl-1H-imidazol-4-yl)sulfonyl]-4-phenylpyrrolidin-3-amine]	≤ 100
CC(=O)CCC(=O)N[C@H]1CN(S(=O)(=O)c2cn(C)cn2)C[C@@H]1c1ccc(F)cc1 [Example 738, N-{(3R,4S)-4-(4-fluorophenyl)-1-[(1-methyl-1H-imidazol-4-yl)sulfonyl]pyrrolidin-3-yl}-4-oxopentanamide]	> 10000
CCCCCCN[C@H]1CN(S(=O)(=O)c2cn(C)cn2)C[C@@H]1C1CCCCO1 (stereo partly drawn) [Example 679, (3R,4S)-N-hexyl-1-[(1-methyl-1H-imidazol-4-yl)sulfonyl]-4-(tetrahydro-2H-pyran-2-yl)pyrrolidin-3-amine]	≤ 1000
Cc1c(S(=O)(=O)N2CC(Nc3ccc(F)c(F)c3)C(c3ccccc3)C2)cnn1C (stereo not drawn) [Example 483, N-(3,4-difluorophenyl)-1-[(1,5-dimethyl-1H-pyrazol-4-yl)sulfonyl]-4-phenylpyrrolidin-3-amine]	≤ 10000
Cn1cnc(S(=O)(=O)N2C[C@H](NCCO[Si](C)(C)C(C)(C)C)[C@@H](c3ccccc3)C2)c1 [Example 551, (3R,4S)-N-(2-{[tert-butyl(dimethyl)silyl]oxy}ethyl)-1-[(1-methyl-1H-imidazol-4-yl)sulfonyl]-4-phenylpyrrolidin-3-amine]	≤ 10000
CCOCCCNC[C@@H]1CN(S(=O)(=O)c2cn(C)cn2)C[C@H]1c1ccc(F)cc1 (relative stereo) [Example 592, 3-ethoxy-N-({trans-4-(4-fluorophenyl)-1-[(1-methyl-1H-imidazol-4-yl)sulfonyl]pyrrolidin-3-yl}methyl)propan-1-amine]	≤ 10000

Same assay, conditions: radioligand binding, recombinant CHO cell membranes expressing human GlyT1c

Compound	Ki [nM]
Cn1cnc(S(=O)(=O)N2C[C@@H](Nc3cccc(OCC(F)(F)F)c3)[C@H](C3CCCO3)C2)c1 (relative stereo) [Example 819, Trans-1-[(1-methyl-1H-imidazol-4-yl)sulfonyl]-4-(tetrahydrofuran-2-yl)-N-[3-(2,2,2-trifluoroethoxy)phenyl]pyrrolidin-3-amine]	≤ 100
Cn1cnc(S(=O)(=O)N2C[C@@H](Nc3ccc(Cl)c(C(F)(F)F)c3)[C@H](C3CCOC3)C2)c1 (relative stereo) [Example 833, trans-N-[4-chloro-3-(trifluoromethyl)phenyl]-1-[(1-methyl-1H-imidazol-4-yl)sulfonyl]-4-(tetrahydrofuran-3-yl)pyrrolidin-3-amine]	≤ 10000
Cn1cnc(S(=O)(=O)N2C[C@@H](Nc3ccc(F)c(C(F)(F)F)c3)[C@H](C3CCCO3)C2)c1 (relative stereo) [Example 843, Trans-N-[4-fluoro-3-(trifluoromethyl)phenyl]-1-[(1-methyl-1H-imidazol-4-yl)sulfonyl]-4-(tetrahydrofuran-2-yl)pyrrolidin-3-amine]	≤ 100
